Peptide text beside a SMILES is read from it.
Assays:
[1] = molecular target: T1, Kv 1.3 of human T lymphocytes (Homo sapiens, UniProt P22001); test: [125I]ChTX binding to human T cells
T1 construct: endogenous in cells; host or cells: purified human peripheral blood T lymphocytes
Protocol: In addition to being tested for competition for [^125 I]ChTX binding to rat brain and bovine aortic smooth muscle, MgTX was evaluated for its effects on [^125 I]ChTX binding to human T lymphocytes and to plasma membranes prepared from Jurkat cells, a human T-cell leukemia line. MgTX competition for [^125 I]ChTX binding to human T cells was performed as described by Lin, et al., J. Exp. Med. 177, 637-645, 1993. Binding experiments using monocyte-depleted, E-rosetted human T cells were carried out in isotonic sucrose with 5 mM KCl, 5 mM NaCl, 6 mM glucose and 10 mM HEPES, pH 8.0 until equilibrium was achieved. The procedure for binding to plasma membranes from Jurkat Cells is similar except that the binding solution was 3 mM KCl, 7 mM NaCl, 10 mM HEPES, pH 8.0. Free ligand was removed from bound by filtration through Whatman GF/C glass fiber filters (pretreated with 0.5% polyethylenimine). […] Hill coefficients were 2 in both cases.

[2] = test system: human T cells; conditions: cited from earlier work

T1 sequence (P22001 whole entry): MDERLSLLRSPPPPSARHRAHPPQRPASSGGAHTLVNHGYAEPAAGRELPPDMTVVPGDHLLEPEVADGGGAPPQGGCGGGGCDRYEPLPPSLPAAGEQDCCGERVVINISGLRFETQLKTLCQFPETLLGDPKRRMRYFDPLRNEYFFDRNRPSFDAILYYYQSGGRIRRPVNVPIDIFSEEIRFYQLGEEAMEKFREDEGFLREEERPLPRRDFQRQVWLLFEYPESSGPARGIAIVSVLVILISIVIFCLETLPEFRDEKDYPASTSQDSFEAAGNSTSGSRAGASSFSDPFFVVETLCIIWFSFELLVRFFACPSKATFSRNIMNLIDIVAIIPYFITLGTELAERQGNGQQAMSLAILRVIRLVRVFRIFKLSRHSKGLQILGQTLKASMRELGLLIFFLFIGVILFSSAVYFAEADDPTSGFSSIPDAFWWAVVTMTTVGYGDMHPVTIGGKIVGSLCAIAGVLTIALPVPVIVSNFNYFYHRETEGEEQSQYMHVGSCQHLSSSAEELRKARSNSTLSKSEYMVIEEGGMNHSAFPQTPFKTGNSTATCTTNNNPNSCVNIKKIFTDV

CC[C@H](C)[C@H](NC(=O)[C@@H](N)[C@@H](C)O)C(=O)N[C@H](C(=O)N[C@@H](CC(N)=O)C(=O)N[C@H](C(=O)N[C@@H](CCCCN)C(=O)N[C@H]1CSSC[C@@H]2NC(=O)[C@H](CCCCN)NC(=O)[C@H](C)NC(=O)CNC(=O)[C@H](C)NC(=O)[C@H](CO)NC(=O)[C@H](CCC(N)=O)NC(=O)CNC(=O)[C@H](Cc3ccccc3)NC(=O)[C@H](CCC(N)=O)NC(=O)[C@H](C)NC(=O)[C@H](CCCCN)NC(=O)[C@@H]3CSSC[C@@H](C(=O)N[C@@H](Cc4ccc(O)cc4)C(=O)N4CCC[C@H]4C(=O)N[C@@H](Cc4c[nH]cn4)C(=O)O)NC(=O)[C@H](CCCCN)NC(=O)[C@H](CSSC[C@H](NC(=O)[C@H](CCC(N)=O)NC(=O)[C@H](CCCCN)NC(=O)[C@@H]4CCCN4C(=O)[C@H](CO)NC(=O)[C@H]([C@@H](C)O)NC1=O)C(=O)N[C@@H](CC(C)C)C(=O)N1CCC[C@H]1C(=O)N1CCC[C@H]1C(=O)N3)NC(=O)[C@H](CCCCN)NC(=O)CNC(=O)[C@H](CC(N)=O)NC(=O)[C@H](CCSC)NC2=O)C(C)C)[C@@H](C)CC [MgTX, Margatoxin] (HELM PEPTIDE1{T.I.I.N.V.K.C.T.S.P.K.Q.C.L.P.P.C.K.A.Q.F.G.Q.S.A.G.A.K.C.M.N.G.K.C.K.C.Y.P.H}$PEPTIDE1,PEPTIDE1,7:R3-29:R3|PEPTIDE1,PEPTIDE1,13:R3-34:R3|PEPTIDE1,PEPTIDE1,17:R3-36:R3$$$V2.0; N-terminus and C-terminus assumed; bridges inferred)
Hill coefficient [1]: 2
IC50 ([1]; isotonic sucrose, pH 8.0, read-out: IC50 for inhibition of [125I]ChTX binding): 1.4 pM
effect on activation and proliferation mediated by Ca2+-dependent pathways [2]: prevent activation and proliferation
effect on membrane potential of human T cells [2]: depolarize human T cells
